Experimental data from patent publication US11542304B2, “Multimeric bicyclic peptide ligands” (BicycleTx Limited, priority 2018, dated 2023).
Starred links: 1 amine or outer side, 2 acyl side, 3 side chain; linkers in the order of their positions; H or OH if unused. Positions of bridges follow the written chain, without caps; N, C: chain ends. Non-standard residues stand in square brackets, D forms with d. Chains are numbered I, II in the order given. X2 = O=C(CCOCCN(CCOCCC(=O)NCCOCCOCCOCCOCCOCCOCCOCCOCCOCCOCCOCCOCCOCCOCCOCCOCCOCCOCCOCCOCCOCCOCCOCCn1nnc2c1CCC1C(CC2)C1COC(=O)[*:2])CCOCCC(=O)NCCOCCOCCOCCOCCOCCOCCOCCOCCOCCOCCOCCOCCOCCOCCOCCOCCOCCOCCOCCOCCOCCOCCOCCn1nnc2c1CCC1C(CC2)C1COC(=O)[*:3])NCCOCCOCCOCCOCCOCCOCCOCCOCCOCCOCCOCCOCCOCCOCCOCCOCCOCCOCCOCCOCCOCCOCCOCCn1nnc2c1CCC1C(CC2)C1COC(=O)[*:1]; X3 = O=C(CCOCCN(CCOCCC(=O)NCCOCCOCCOCCOCCOCCOCCOCCOCCOCCOCCn1nnc2c1CCC1C(CC2)C1COC(=O)[*:2])CCOCCC(=O)NCCOCCOCCOCCOCCOCCOCCOCCOCCOCCOCCn1nnc2c1CCC1C(CC2)C1COC(=O)[*:3])NCCOCCOCCOCCOCCOCCOCCOCCOCCOCCOCCn1nnc2c1CCC1C(CC2)C1COC(=O)[*:1]; X1 = O=C(CCOCCN(CCOCCC(=O)NCCOCCOCCOCCOCCOCCOCCOCCOCCOCCOCCn1cc(CCC(=O)[*:2])nn1)CCOCCC(=O)NCCOCCOCCOCCOCCOCCOCCOCCOCCOCCOCCn1cc(CCC(=O)[*:3])nn1)NCCOCCOCCOCCOCCOCCOCCOCCOCCOCCOCCn1cc(CCC(=O)[*:1])nn1; TATA = O=C(CC[*:1])N1CN(C(=O)CC[*:2])CN(C(=O)CC[*:3])C1; Nle = CCCC[C@H](N)C(=O)O

Experiments:
[1] = molecular target: CD137 (Homo sapiens, UniProt Q07011); assay: CD137 Promega reporter cell activity assay (NF-κB luciferase in Jurkat cells); conditions: for Average Fold EC50 Improvement relative to CD137L: Average EC50 for CD137L = 14.2 nM; for Average Relative Fold Induction relative to CD137L: Average fold induction for CD137L = 4.0
CD137, sequence (Q07011 24-255): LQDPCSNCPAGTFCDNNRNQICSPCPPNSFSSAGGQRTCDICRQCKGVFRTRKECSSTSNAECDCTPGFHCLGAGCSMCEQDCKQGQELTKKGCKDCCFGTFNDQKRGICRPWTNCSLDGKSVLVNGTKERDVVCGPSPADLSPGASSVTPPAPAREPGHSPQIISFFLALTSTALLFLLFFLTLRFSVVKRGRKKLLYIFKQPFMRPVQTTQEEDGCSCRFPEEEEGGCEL

[2] = Pharmacokinetics of Bicycle multimers in CD-1 mice; conditions: 5 mg/kg IV, male CD-1 mice; FIGS. 5A and 5B
[3] = clinical testing, cited from earlier work

In the case of CCCC[C@@H]1NC(=O)[C@H](Cc2ccc(O)cc2)NC(=O)[C@@H]2CCCN2C(=O)[C@H](CC(=O)O)NC(=O)[C@H](C)NC(=O)[C@H](Cc2ccccc2)NC(=O)[C@@H]2CSCCC(=O)N3CN(CN(C3)C(=O)CCSC[C@@H](C(=O)N[C@@H](C)C(N)=O)NC1=O)C(=O)CCSC[C@H](NC(=O)[C@H](C)NC(C)=O)C(=O)N[C@@H]([C@@H](C)CC)C(=O)N[C@@H](CCC(=O)O)C(=O)N[C@@H](CCCCNC(=O)OCC1C3CCc4nnn(CCOCCOCCOCCOCCOCCOCCOCCOCCOCCOCCNC(=O)CCOCC(COCCC(=O)NCCOCCOCCOCCOCCOCCOCCOCCOCCOCCOCCn5nnc6c5CCC5C(CC6)C5COC(=O)NCCCC[C@@H]5NC(=O)[C@H](CCC(=O)O)NC(=O)[C@H]([C@@H](C)CC)NC(=O)[C@@H](NC(=O)[C@H](C)NC(C)=O)CSCCC(=O)N6CN7CN(C6)C(=O)CCSC[C@H](NC(=O)[C@H](Cc6ccc(O)cc6)NC(=O)[C@H](CCC(N)=O)NC(=O)CNC5=O)C(=O)N[C@@H](Cc5ccccc5)C(=O)N[C@@H](C)C(=O)N[C@@H](CC(=O)O)C(=O)N5CCC[C@H]5C(=O)N[C@@H](Cc5ccc(O)cc5)C(=O)N[C@@H](CCCC)C(=O)N[C@H](C(=O)N[C@@H](C)C(N)=O)CSCCC7=O)(COCCC(=O)NCCOCCOCCOCCOCCOCCOCCOCCOCCOCCOCCn5nnc6c5CCC5C(CC6)C5COC(=O)NCCCC[C@@H]5NC(=O)[C@H](CCC(=O)O)NC(=O)[C@H]([C@@H](C)CC)NC(=O)[C@@H](NC(=O)[C@H](C)NC(C)=O)CSCCC(=O)N6CN7CN(C6)C(=O)CCSC[C@H](NC(=O)[C@H](Cc6ccc(O)cc6)NC(=O)[C@H](CCC(N)=O)NC(=O)CNC5=O)C(=O)N[C@@H](Cc5ccccc5)C(=O)N[C@@H](C)C(=O)N[C@@H](CC(=O)O)C(=O)N5CCC[C@H]5C(=O)N[C@@H](Cc5ccc(O)cc5)C(=O)N[C@@H](CCCC)C(=O)N[C@H](C(=O)N[C@@H](C)C(N)=O)CSCCC7=O)COCCC(=O)NCCOCCOCCOCCOCCOCCOCCOCCOCCOCCOCCn5nnc6c5CCC5C(CC6)C5COC(=O)NCCCC[C@@H]5NC(=O)[C@H](CCC(=O)O)NC(=O)[C@H]([C@@H](C)CC)NC(=O)[C@@H](NC(=O)[C@H](C)NC(C)=O)CSCCC(=O)N6CN7CN(C6)C(=O)CCSC[C@H](NC(=O)[C@H](Cc6ccc(O)cc6)NC(=O)[C@H](CCC(N)=O)NC(=O)CNC5=O)C(=O)N[C@@H](Cc5ccccc5)C(=O)N[C@@H](C)C(=O)N[C@@H](CC(=O)O)C(=O)N5CCC[C@H]5C(=O)N[C@@H](Cc5ccc(O)cc5)C(=O)N[C@@H](CCCC)C(=O)N[C@H](C(=O)N[C@@H](C)C(N)=O)CSCCC7=O)c4CCC31)C(=O)NCC(=O)N[C@@H](CCC(N)=O)C(=O)N[C@@H](Cc1ccc(O)cc1)C(=O)N2 (some centres unmarked) [BCY8150], the “Average Fold EC50 Improvement relative to CD137L” value [1] is reported as 4.14 and the “Average Relative Fold Induction relative to CD137L” value [1] is reported as 0.77.

In the case of “ACIEEGQYCFADPYMCA [BCY592, reference compound]”, the “CD137 agonism / activation in reporter cells (in words)” value ([1]; FIGS. 1 to 3 and 15) is reported as “no detectable activity”.

In the case of “CD137L: the natural ligand (CD137L) for activation of CD137”, the EC50 ([1]; read-out: Average EC50, reference substance of Table 4A / 4B) is reported as 0.0142 µM and the Average fold induction ([1]; reference substance of Table 4A / 4B) is reported as “**Average fold induction for CD137L = 4.0”.

With “I: Ac-ACIEEGKYCFADPY[Nle]CA-NH2 / II: Ac-ACIEEGKYCFADPY[Nle]CA-NH2 / III: Ac-ACIEEGKYCFADPY[Nle]CA-NH2 (linker I:2-I:9-I:16, II:2-II:9-II:16, III:2-III:9-III:16 via TATA; linker I:7-II:7-III:7 via X3) [BCY8151]” the “Average Fold EC50 Improvement relative to CD137L” value [1] was 213.05 and the “Average Relative Fold Induction relative to CD137L” value [1] was 0.49.

For “I: Ac-ACIEEGQYCKADPY[Nle]CA-NH2 / II: Ac-ACIEEGQYCKADPY[Nle]CA-NH2 / III: Ac-ACIEEGQYCKADPY[Nle]CA-NH2 (linker I:2-I:9-I:16, II:2-II:9-II:16, III:2-III:9-III:16 via TATA; linker I:10-II:10-III:10 via X2) [BCY8146]”, the “Average Fold EC50 Improvement relative to CD137L” value [1] was 5.11 and the “Average Relative Fold Induction relative to CD137L” value [1] was 0.83.

With “I: Ac-ACIEEGQYCKADPY[Nle]CA-NH2 / II: Ac-ACIEEGQYCKADPY[Nle]CA-NH2 / III: Ac-ACIEEGQYCKADPY[Nle]CA-NH2 (linker I:2-I:9-I:16, II:2-II:9-II:16, III:2-III:9-III:16 via TATA; linker I:10-II:10-III:10 via X3) [BCY8145]” the “Average Fold EC50 Improvement relative to CD137L” value [1] was 5.93 and the “Average Relative Fold Induction relative to CD137L” value [1] was 0.95.

For “I: Ac-ACIEKGQYCFADPY[Nle]CA-NH2 / II: Ac-ACIEKGQYCFADPY[Nle]CA-NH2 / III: Ac-ACIEKGQYCFADPY[Nle]CA-NH2 (linker I:2-I:9-I:16, II:2-II:9-II:16, III:2-III:9-III:16 via TATA; linker I:5-II:5-III:5 via X1) [BCY7835]”, the “systemic elimination (plasma concentration after IV dosing)” value [2] was “retain the property of rapid systemic elimination” and the “Average Relative Fold Induction relative to CD137L” value [1] was 1.04.

For urelumab, the “doses at which hepatoxicity was observed” value [3] is listed as ≥ 1 mg/kg and the single agent activity [3] is listed as “single agent, partial responses in melanoma”.

For utomilumab, the “dose up to which hepatotoxicity was not observed” value ([3]; solid tumors) is given as “up to 5 mg/kg” and the single agent activity [3] is given as “little or no single agent activity”.
